In US20260365628A1, “SUBSTITUTED 3,4-DIHYDROQUINOLINONE INHIBITORS OF TSHR” (Septerna, Inc., priority 2022, published 2026) one finds IC50 data, which are given here for 32 molecules.

T1 sequence (P16473 21-764): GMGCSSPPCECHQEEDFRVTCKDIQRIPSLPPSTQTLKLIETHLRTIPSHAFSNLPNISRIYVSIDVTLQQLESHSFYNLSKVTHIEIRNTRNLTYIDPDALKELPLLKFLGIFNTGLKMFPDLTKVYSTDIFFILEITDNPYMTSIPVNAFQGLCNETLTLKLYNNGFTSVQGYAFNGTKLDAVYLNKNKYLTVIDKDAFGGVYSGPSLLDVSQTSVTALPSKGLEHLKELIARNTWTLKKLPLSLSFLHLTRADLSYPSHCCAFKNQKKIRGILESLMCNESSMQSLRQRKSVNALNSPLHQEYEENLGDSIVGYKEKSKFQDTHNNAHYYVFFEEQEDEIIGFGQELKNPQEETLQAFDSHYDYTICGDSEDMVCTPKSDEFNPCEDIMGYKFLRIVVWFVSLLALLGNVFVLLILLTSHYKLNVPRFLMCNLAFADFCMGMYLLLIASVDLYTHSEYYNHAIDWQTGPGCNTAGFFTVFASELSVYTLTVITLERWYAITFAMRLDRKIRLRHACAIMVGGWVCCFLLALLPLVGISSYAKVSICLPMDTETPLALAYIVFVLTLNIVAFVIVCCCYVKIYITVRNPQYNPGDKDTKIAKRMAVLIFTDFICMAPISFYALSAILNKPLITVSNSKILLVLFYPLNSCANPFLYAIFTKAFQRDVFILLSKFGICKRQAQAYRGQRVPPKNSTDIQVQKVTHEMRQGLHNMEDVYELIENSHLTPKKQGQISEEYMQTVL

The first test concerns the target T1, hTSHR (Homo sapiens, UniProt P16473).
T1 construct: expressed in transfected cells
As to the kind of experiment: hTSHR TR-FRET cAMP Assay (inhibition of M22-stimulated cAMP production). In kind it is cell-based.
Details: not given
As for the experimental part: Assays were performed using Expi293F Inducible cells (Invitrogen) stably expressing hTSHR via a pcZeo TetO DNA plasmid. Cell lines were maintained in suspension in Expi293 Expression Medium (ThermoFisher Scientific) supplemented with 10 µg/mL Blasticidin and 10 μg/mL Zeocin and incubated at 37° C., 8% CO2, with shaking. hTSHR cells were incubated overnight at 32° C., 5% C02, with shaking, but […] Doxycycline. Assay-ready aliquots were prepared by harvesting each cell type separately 24-hours post-induction. Cells were pelleted at 4° C., resuspended in Expi293 Expression media+10% DMSO, aliquoted, and kept frozen at −80° C. until ready for use.
For the assay, concentration-response curves of test and reference compounds were added to 384-well plates using an Echo 650 liquid handler (Beckman Coulter) and backfilled with DMSO to a final concentration of 0.5%. cAMP was measured using the cisbio cAMP Gs dynamic HTRF kit (PerkinElmer) according to manufacturer instructions. Aliquots of frozen hTSHR cells were quickly thawed and washed with phosphate-buffered saline (Sigma-Aldrich) to remove media and DMSO. The cells were resuspended in kit-supplied Stimulation Buffer at 0.8×10^6 cells/mL. 7.5 μL of the hTSHR cell dilution were added to each well of the assay plate and incubated with the compounds for 15 minutes in a 37 C, 0% CO2 incubator. 2.5 μL of Vehicle control or an EC80 concentration of recombinant human anti-TSHR antibody (M22, Creative Biolabs) was added to stimulate cAMP production. Cells were incubated with for 30 minutes at 37° C., 0% CO2. Following this incubation, the cells were lysed and accumulated cAMP was detected through the addition of kit-supplied lysis buffer containing d2-reagent and Eu-cryptate antibody. The HTRF signal was quantified using a BMG Clariostar plate reader optimized for HTRF assays. The HTRF ratio was determined by dividing the signal output at […] by that at 620 nm. Data were normalized to the signal produced by the EC80 concentration of either M22 or FSH (0% inhibition) and vehicle (no agonist, 100% inhibition).
In general terms: In TR-FRET formats the signal depends on donor and acceptor labels being close together.
As to `CC(C)(C)NC(=O)Oc1ccc2c(c1)CCC(=O)N2Cc1ccccc1` [Example 63], the IC50 (in general, the point on the concentration scale where inhibition reaches its midpoint) is > 1000 nM.

Still in this test, the particulars now being: Expi293F Inducible cells stably expressing hTSHR; cAMP HTRF; stimulated with EC80 of anti-TSHR antibody M22; 15 min compound preincubation, 30 min at 37° C.; read-out: Activity (IC50 bins).
Turning to `CC(C)(C)NC(=O)Nc1ccc2c(c1)CCC(=O)N2Cc1cccc(C(F)(F)F)c1F` [Example 54, 1-(tert-butyl)-3-(1-(2-fluoro-3-(trifluoromethyl)benzyl)-2-oxo-1,2,3,4-tetrahydroquinolin-6-yl)urea], the concentration for half-maximal inhibition (IC50) was < 100 nM.

As to `CC(C)(C)NC(=O)Nc1ccc2c(c1)CCC(=O)N2Cc1cc(C(F)(F)F)ccc1C#N` [Example 55, 3-tert-butyl-1-(1-{[2-cyano-5-(trifluoromethyl)phenyl]methyl}-2-oxo-3,4-dihydroquinolin-6-yl) urea], the concentration for half-maximal inhibition (IC50) is < 100 nM.

Turning to `Cc1cccc([C@H](C)N2C(=O)CCc3cc(NC(=O)NC(C)(C)C)ccc32)c1` [Example 56, (S)-1-(tert-butyl)-3-(2-oxo-1-(1-(m-tolyl)ethyl)-1,2,3,4-tetrahydroquinolin-6-yl)urea], the IC50 is < 100 nM.

For the molecule `Cc1cccc([C@H](C)N2C(=O)COc3cc(NC(=O)NC(C)(C)C)ccc32)c1` [Example 57, (S)-1-(tert-butyl)-3-(3-oxo-4-(1-(m-tolyl)ethyl)-3,4-dihydro-2H-benzo[b][1,4]oxazin-7-yl)urea], the half-maximal inhibitory concentration (IC50) was < 100 nM.

For the molecule `C[C@@H](c1ccccc1F)N1C(=O)CCc2cc(NC(=O)NC(C)(C)C)ccc21` [Example 58, 3-tert-butyl-1-{1-[(1S)-1-(2-fluorophenyl)ethyl]-2-oxo-3,4-dihydroquinolin-6-yl}urea], the half-maximal inhibitory concentration (IC50) was < 100 nM.

As for `CC(C)(C)NC(=O)Nc1ccc2c(c1)CCC(=O)N2Cc1cccc(C(F)(F)F)c1C#N` [Example 59, 1-(tert-butyl)-3-(1-(2-cyano-3-(trifluoromethyl)benzyl)-2-oxo-1,2,3,4-tetrahydroquinolin-6-yl)urea], the IC50 was 100 to 1000 nM.

As for `C[C@@H](c1cccc(C(F)(F)F)c1)N1C(=O)CCc2cc(NC(=O)NC(C)(C)C)ccc21` [Example 60, (S)-3-tert-butyl-1-(2-oxo-1-{1-[3-(trifluoromethyl)phenyl]ethyl}-3,4-dihydroquinolin-6-yl)urea], the IC50 was < 100 nM.

Consider `C[C@@H](c1ccccc1C#N)N1C(=O)CCc2cc(NC(=O)NC(C)(C)C)ccc21` [Example 61, (S)-1-(tert-butyl)-3-(1-(1-(2-cyanophenyl)ethyl)-2-oxo-1,2,3,4-tetrahydroquinolin-6-yl)urea], for which the half-maximal inhibitory concentration (IC50) was 100 to 1000 nM.

On to `C[C@@H](c1cccc(C(F)(F)F)c1)N1C(=O)COc2cc(NC(=O)NC(C)(C)C)ccc21` [Example 62, (S)-1-(tert-butyl)-3-(3-oxo-4-(1-(3-(trifluoromethyl)phenyl)ethyl)-3,4-dihydro-2H-benzo[b][1,4]oxazin-7-yl)urea], for which the 50% inhibitory concentration (IC50) was < 100 nM.

Consider `CC(C)(C)NC(=O)Nc1ccc2c(c1)CCC(=O)N2CC1CCCCC1` [Example 64, 1-(tert-butyl)-3-(1-(cyclohexylmethyl)-2-oxo-1,2,3,4-tetrahydroquinolin-6-yl)urea], for which the half-inhibitory concentration (IC50) is > 1000 nM.

For `CC(C)(C)NC(=O)Nc1cc2c(cc1F)N(Cc1ccccc1)C(=O)CC2` [Example 65, 1-(1-benzyl-7-fluoro-2-oxo-1,2,3,4-tetrahydroquinolin-6-yl)-3-(tert-butyl)urea], the 50% inhibitory concentration (IC50) was 100 to 1000 nM.

In the case of `CC(C)(C)NC(=O)Nc1cc2c(cc1Cl)N(Cc1ccccc1)C(=O)CC2` [Example 66, 1-(1-benzyl-7-chloro-2-oxo-3,4-dihydroquinolin-6-yl)-3-tert-butylurea], the half-inhibitory concentration (IC50) fell in the range of 100 to 1000 nM.

On to `CC(C)(C)NC(=O)Nc1ccc2c(n1)CCC(=O)N2Cc1ccccc1` [Example 67, 1-(5-benzyl-6-oxo-5,6,7,8-tetrahydro-1,5-naphthyridin-2-yl)-3-(tert-butyl)urea], for which the half-maximal inhibitory concentration (IC50) fell in the range of 100 to 1000 nM.

Turning to `CC(C)(C)NC(=O)Nc1ccc2c(c1)ncc(=O)n2Cc1ccccc1` [Example 68, 1-(1-benzyl-2-oxo-1,2-dihydroquinoxalin-6-yl)-3-(tert-butyl)urea], the IC50 is < 100 nM.

As to `CC(C)(C)NC(=O)Nc1cc(F)c2c(c1)CCC(=O)N2Cc1ccccc1` [Example 69, 1-(1-benzyl-8-fluoro-2-oxo-1,2,3,4-tetrahydroquinolin-6-yl)-3-(tert-butyl)urea], the IC50 lay within 100 to 1000 nM.

For `CN1Cc2cc(NC(=O)NC(C)(C)C)ccc2N(Cc2cccc(C(F)(F)F)c2)C1=O` [Example 70, 1-(tert-butyl)-3-(3-methyl-2-oxo-1-(3-(trifluoromethyl)benzyl)-1,2,3,4-tetrahydroquinazolin-6-yl)urea], the IC50 was < 100 nM.

In the case of `CC(C)(C)NC(=O)Nc1ccc2c(c1)OCC(=O)N2Cc1cccc(C(F)F)c1` [Example 71, 1-(tert-butyl)-3-(4-(3-(difluoromethyl)benzyl)-3-oxo-3,4-dihydro-2H-benzo[b][1,4]oxazin-7-yl)urea], the 50% inhibitory concentration (IC50) lay within 100 to 1000 nM.

As for `CC(C)(C)NC(=O)Nc1ccc2c(c1)OCC(=O)N2Cc1cccc(CO)c1` [Example 72, 1-(tert-butyl)-3-(4-(3-(hydroxy-methyl)ben-zyl)-3-oxo-3,4-dihydro-2H-benzo[b][1,4]oxa-zin-7-yl)urea], the concentration for half-maximal inhibition (IC50) is > 1000 nM.

Regarding `CC(C)(C)NC(=O)Nc1ccc2c(c1)OCC(=O)N2Cc1cccc(C2CC2)c1` [Example 73, 1-(tert-butyl)-3-(4-(3-cyclopropylbenzyl)-3-oxo-3,4-dihydro-2H-benzo[b][1,4]oxa-zin-7-yl)urea], the half-maximal inhibitory concentration (IC50) fell in the range of 100 to 1000 nM.

In the case of `CC(C)(C)NC(=O)Nc1ccc2c(c1)OCC(=O)N2Cc1cccc(OC(F)(F)F)c1` [Example 74, 1-(tert-butyl)-3-(3-oxo-4-(3-(tri-fluoromethoxy)ben-zyl)-3,4-dihydro-2H-benzo[b][1,4]oxa-zin-7-yl)urea], the IC50 lay within 100 to 1000 nM.

With `CC(C)Oc1cccc(CN2C(=O)COc3cc(NC(=O)NC(C)(C)C)ccc32)c1` [Example 75, 1-(tert-butyl)-3-(4-(3-isopropoxybenzyl)-3-oxo-3,4-dihydro-2H-benzo[b][1,4]oxa-zin-7-yl)urea], the IC50 lay in the range of 100 to 1000 nM.

For `CC(C)(C)NC(=O)Nc1ccc2c(c1)OCC(=O)N2Cc1cccc2cn[nH]c12` [Example 76, 1-(4-((1H-indazol-7-y1)methyl)-3-oxo-3,4-dihydro-2H-benzo[b][1,4]oxa-zin-7-yl)-3-(tert-butyl)urea], the IC50 is > 1000 nM.

For the molecule `CC(C)(C)NC(=O)Nc1ccc2c(c1)OCC(=O)N2Cc1cccc(C(O)C(F)(F)F)c1` (centres unmarked) [Example 77, 1-(tert-butyl)-3-(3-oxo-4-(3-(2,2,2-trifluoro-1-hy-droxyethyl)benzyl)-3,4-dihydro-2H-benzo[b][1,4]oxa-zin-7-yl)urea], the half-maximal inhibitory concentration (IC50) lay in the range of 100 to 1000 nM.

Consider `CC(C)(C)NC(=O)Nc1ccc2c(c1)OCC(=O)N2Cc1cccc([C@@H](O)C(F)(F)F)c1` [Example 78, (R)-1-(tert-butyl)-3-(3-oxo-4-(3-(2,2,2-trifluoro-1-hydroxyethyl)ben-zyl)-3,4-dihydro-2H-benzo[b][1,4]oxa-zin-7-yl)urea], for which the IC50 is 100 to 1000 nM.

In the case of `CC(C)(C)NC(=O)Nc1ccc2c(c1)OCC(=O)N2Cc1cccc([C@H](O)C(F)(F)F)c1` [Example 79, (S)-1-(tert-butyl)-3-(3-oxo-4-(3-(2,2,2-trifluoro-1-hy-droxyethyl)benzyl)-3,4-dihydro-2H-benzo[b][1,4]oxa-zin-7-yl)urea], the IC50 was 100 to 1000 nM.

On to `CC(C)(C)NC(=O)Nc1ccc2c(c1)OCC(=O)N2Cc1cccc(C(O)CC(F)(F)F)c1` (centres unmarked) [Example 80, 1-(tert-butyl)-3-(3-oxo-4-(3-(3,3,3-trifluoro-1-hydroxypropyl)ben-zyl)-3,4-dihydro-2H-benzo[b][1,4]oxa-zin-7-yl)urea], for which the IC50 fell in the range of 100 to 1000 nM.

`C[C@H]1Oc2cc(NC(=O)NC(C)(C)C)ccc2N(Cc2cccc(C(F)(F)F)c2)C1=O` [Example 81]: the half-maximal inhibitory concentration (IC50) was < 100 nM.

With `C[C@@H]1Oc2cc(NC(=O)NC(C)(C)C)ccc2N(Cc2cccc(C(F)(F)F)c2)C1=O` [Example 82], the IC50 was 100 to 1000 nM.

For the molecule `C[C@H]1Oc2cc(NC(=O)NC(C)(C)C)ccc2N(Cc2cc(C(F)(F)F)ccc2C#N)C1=O` [Example 83, (R)-1-(tert-butyl)-3-(4-(2-cyano-5-(trifluoromethyl)benzyl)-2-methyl-3-oxo-3,4-dihydro-2H-benzo[b][1,4]oxazin-7-yl)urea], the IC50 is > 1000 nM.

Regarding `C[C@@H]1Oc2cc(NC(=O)NC(C)(C)C)ccc2N(Cc2cc(C(F)(F)F)ccc2C#N)C1=O` [Example 84, (S)-1-(tert-butyl)-3-(4-(2-cyano-5-(trifluoromethyl)benzyl)-2-methyl-3-oxo-3,4-dihydro-2H-benzo[b][1,4]oxazin-7-yl)urea], the IC50 was 100 to 1000 nM.

Take `C[C@H]1Oc2cc(NC(=O)NC(C)(C)C)ccc2N(Cc2cc(Cl)ccc2C#N)C1=O` [Example 85, (R)-1-(tert-butyl)-3-(4-(5-chloro-2-cyanobenzyl)-2-methyl-3-oxo-3,4-dihydro-2H-benzo[b][1,4]oxazin-7-yl)urea]: the concentration for half-maximal inhibition (IC50) lay in the range of 100 to 1000 nM.
